# Laboratory results: US20110039333A1, “DEFINED CONDITIONS FOR HUMAN EMBRYONIC STEM CELL CULTURE AND PASSAGE” (UNIVERSITY OF SOUTHERN CALIFORNIA, priority 2009, published 2011)
# Legend:
# DYRK4 = molecular target: T1, DYRK4 (Homo sapiens, UniProt Q9NR20); experiment: ID-8 pull-down, western blotting with DYRK family antibodies; type: binding; conditions: western blotting of precipitated proteins
# T1 construct: endogenous in cells
# T1 sequence (Q9NR20 1-520): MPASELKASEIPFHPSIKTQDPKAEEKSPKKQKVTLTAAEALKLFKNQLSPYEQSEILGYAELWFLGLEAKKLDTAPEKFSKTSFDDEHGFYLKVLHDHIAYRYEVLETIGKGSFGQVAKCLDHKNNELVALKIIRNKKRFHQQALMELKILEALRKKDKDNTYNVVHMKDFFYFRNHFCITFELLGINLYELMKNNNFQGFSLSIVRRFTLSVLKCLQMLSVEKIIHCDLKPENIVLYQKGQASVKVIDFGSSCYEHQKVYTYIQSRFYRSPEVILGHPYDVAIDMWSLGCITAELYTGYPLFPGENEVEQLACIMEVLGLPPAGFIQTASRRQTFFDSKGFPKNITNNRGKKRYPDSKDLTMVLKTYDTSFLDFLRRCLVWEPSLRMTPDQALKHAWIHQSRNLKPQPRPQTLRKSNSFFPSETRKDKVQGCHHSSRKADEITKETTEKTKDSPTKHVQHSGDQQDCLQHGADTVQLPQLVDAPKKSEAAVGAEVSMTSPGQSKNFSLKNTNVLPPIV
# Description: (§1) The cells were washed twice with 5 mL of ice-old PBS and scraped using 1 mL of PBS containing protease inhibitor cocktail (Calbiochem 539137). The cells were collected by centrifugation and the cell pellet was frozen and stocked with liquid nitrogen. Total 2 g of cell pellet was thawed on ice and then suspended in 20 mL of chilled M-Per (Pierce 78501) buffer containing 1 mM DTT and the protease inhibitor cocktail. The cell suspension was mixed and lysed on a nutator (BD Diagnostics) for 30 minutes at 4° C. The lysate was then centrifuged at 10,000 rpm for 30 minutes at 4° C., and the supernatant was divided into two equal aliquots in 50 mL centrifuge tubes. […]
# (§2) After pre-treatment with free competitor ID-8 or DMSO control, the streptayidin-sepharose bound with biotinylated ID-8 was applied on the lysates. […] The specific bands lost by competitor free ID-8 was analyzed by LC/MS (LTQ-XL, Thermo Scientific).
# (§3) The elution was also analyzed by or western blotting with specific antibodies against DYRK1a (Cell Signaling 2771), DYRK2 (Abeam ab37912), DYRK3 (Santa Cruz sc-66868), DYRK4 (Abeam ab37911), or HIP2K (Santa Cruz sc-100383).
# (§4) ID-8 (FIG. 4A) can enhance β-catenin/CBP-mediated transcription, however, its direct molecular target(s) remained unidentified. […] To confirm this, the inventors designed miRNA to target the DYRK family and evaluated them after transfection by immunoblotting (FIG. 4D-E). […]
# DYRK2 = molecular target: T2, DYRK2 (Homo sapiens, UniProt Q92630); experiment: ID-8 affinity chromatography / pull-down with biotinylated ID-8, competition by free ID-8; type: binding; conditions: cell lysates; competition with free ID-8
# T2 construct: endogenous in cells
# T2 sequence (Q92630 1-601): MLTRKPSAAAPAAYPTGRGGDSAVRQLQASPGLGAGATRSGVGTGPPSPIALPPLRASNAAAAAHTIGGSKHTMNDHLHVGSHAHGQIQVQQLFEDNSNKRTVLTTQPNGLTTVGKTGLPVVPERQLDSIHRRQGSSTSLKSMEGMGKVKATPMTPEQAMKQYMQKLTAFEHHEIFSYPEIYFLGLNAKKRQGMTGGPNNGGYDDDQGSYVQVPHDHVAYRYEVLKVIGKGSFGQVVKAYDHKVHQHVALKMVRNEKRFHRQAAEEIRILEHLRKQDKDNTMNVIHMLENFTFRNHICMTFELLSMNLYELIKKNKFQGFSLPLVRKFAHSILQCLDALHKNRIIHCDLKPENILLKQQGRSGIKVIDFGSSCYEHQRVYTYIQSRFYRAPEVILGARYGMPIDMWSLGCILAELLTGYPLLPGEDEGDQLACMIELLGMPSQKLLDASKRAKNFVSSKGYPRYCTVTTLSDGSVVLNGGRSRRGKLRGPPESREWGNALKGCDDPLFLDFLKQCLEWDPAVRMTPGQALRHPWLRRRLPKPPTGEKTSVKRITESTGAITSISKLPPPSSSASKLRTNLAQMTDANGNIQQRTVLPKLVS
# Description: as §1, §2, §3, §4
smiles,measurement,setting,value
COc1ccc(-n2c(C)c([N+](=O)[O-])c3ccc(O)cc32)cc1 [ID-8],DYRK4 in proteins precipitated with biotinylated ID-8,DYRK4,identified not only DYRK2 but also DYRK4
same,binding of DYRK2 to ID-8 affinity column,DYRK2,competed away by free ID-8
